The source made the active and inactive calls. The calls are words filed in the database; no cut-off is given here.
Experiments:
Type in all cases: protein assay
[1] = molecular target: T1, Adrenergic receptor alpha (Rattus norvegicus) (UniProt P15823+P23944+P43140+P22086+P19328+P22909); assay: Stimulation of alpha-adrenergic receptor in ICEM:CER SPF Caw rat vas deferens assessed as muscle contraction after 2 to 3 mins relative to norepinephrine
[2] = molecular target: T1, Adrenergic receptor alpha (Rattus norvegicus); assay: Stimulation of alpha-adrenergic receptor in ICEM:CER SPF Caw rat vas deferens assessed as muscle contraction after 2 to 3 mins in presence of alpha-adrenoceptor blocker dihydroergotamine
[3] = molecular target: T1, Adrenergic receptor alpha (Rattus norvegicus); assay: Stimulation of alpha-adrenergic receptor in ICEM:CER SPF Caw rat vas deferens assessed as potentiation of norepinephrine response at 50 uM after 2 to 3 mins
[4] = molecular target: T1, Adrenergic receptor alpha (Rattus norvegicus); assay: Stimulation of alpha-adrenergic receptor in ICEM:CER SPF Caw rat vas deferens assessed as muscle contraction after 2 to 3 mins relative to INPEA
[5] = molecular target: T1, Adrenergic receptor alpha (Rattus norvegicus); assay: Stimulation of alpha-adrenergic receptor in reserpine-pretreated ICEM:CER SPF Caw rat vas deferens assessed as muscle contraction after 2 to 3 mins

| SMILES | Ratio [1] | Activity [2] | Activity [3] | Ratio [4] | Activity [5] |
| --- | --- | --- | --- | --- | --- |
| O=[N+]([O-])c1ccc(C2CNCCO2)cc1 (stereo not drawn) | 0.0063 | inactive | 203% | 1.4 |  |
| CC(C)(C)NCC(O)c1ccc([N+](=O)[O-])cc1 (stereo not drawn) | 0.0012 | inactive | 127% | 0.27 |  |
| CNCC(O)c1ccc([N+](=O)[O-])cc1 (stereo not drawn) | 0.0047 | inactive | 253% | 1.04 |  |
| NCC(O)c1ccc([N+](=O)[O-])cc1 (stereo not drawn) | 0.0075 | inactive | 179% | 1.66 |  |
| CC(C)(C)N1CCOC(c2ccc([N+](=O)[O-])cc2)C1 (stereo not drawn) | 0.0029 | inactive | 169% | 0.64 |  |
| CC(C)NCC(O)c1ccc([N+](=O)[O-])cc1 (stereo not drawn) | 0.0045 | inactive | 209% |  | Active |
| CN1CCOC(c2ccc([N+](=O)[O-])cc2)C1 (stereo not drawn) | 0.0014 | inactive | 192% | 0.31 |  |
| CC(C)N1CCOC(c2ccc([N+](=O)[O-])cc2)C1 (stereo not drawn) | 0.0045 | inactive | 223% | 1 | Active |

— ChEMBL document CHEMBL3244064, “Conformational effects on the activity of drugs. 7. Synthesis and pharmacological properties of 2-(p-nitrophenyl)-substituted morpholines” (J Med Chem, 1979)
